Source: patent US10703764B2, “Benzopiperazine compositions as BET bromodomain inhibitors” (FORMA Therapeutics, Inc., priority 2013, dated 2020)
Where two headings read alike, the source gives them in different places.

Columns and labels:
BRD4 BD2 = target: T1, BRD4 BD2 (Homo sapiens, UniProt O60885); experiment: AlphaScreen binding assay, BRD4 Bromodomain 2
T1 construct: made in house
Outline: (§1)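 Compound dilution series were mixed with His-tagged BRD4 bromodomain and biotinylated tetra-acetylated H4 (1-21) peptide at pH 7.3 (BD1 and peptide at 50 nM, BD2 and peptide at 100 nM). Donor and acceptor beads were then added, and plates were equilibrated at least 1 h before reading. IC50 values were fitted with a four-parameter logistic model.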

MV4-11 cells = experiment: Oncology cell growth assay (3-day proliferation, CellTiter-Glo); format: cell-based; conditions: Homo sapiens, AML cell line MV4-11, 72 hours, compounds grouped by IC50 range, read-out: MV4-11 IC50 (inhibition of proliferation, gIC50)
Outline: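 A 3-day proliferation test used MV4-11 cells seeded at 3000 per well with eight compound concentrations (10 μM top, 3-fold dilution) at 37° C in 5% CO2. CellTiter-Glo luminescence defined viable cell signal. A four-parameter logistic curve against DMSO and background wells gave the gIC50.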

BRD4 BD1 = target: T2, BRD4 BD1 (Homo sapiens, UniProt O60885); experiment: AlphaScreen binding assay, BRD4 Bromodomain 1
T2 construct: made in house
Outline: as §1

Row | SMILES | IC50 (BRD4 BD2) [nM] | IC50 (MV4-11 cells; MV4-11, 72 h) [nM] | IC50 (BRD4 BD1) [nM] | IC50 (MV4-11 cells) [nM]
1 | CC(C)OC(=O)N1C[C@H](C)N(C(=O)C2CC2)c2ccc(-c3ccc(N4CCCS4(=O)=O)cc3)cc21 [Example I-470] | > 500 | > 500 | 100 to 1000 | –
2 | CC(=O)N1c2ccc(-c3ccccc3F)cc2N(C(=O)c2ccco2)C[C@@H]1C [Example I-795] | 50 to 500 | > 500 | 1000 to 10000 | –
3 | CCS(=O)(=O)Nc1ccc(-c2ccc3c(c2)N(C(=O)C2CCC2)C[C@H](C)N3C(C)=O)cc1 [Example I-1136] | 50 to 500 | 100 to 500 | 100 to 1000 | –
4 | CC(=O)N1c2ccc(-c3ccc(C(=O)N4CCNCC4)cc3)cc2N(C(=O)OC(C)C)C[C@@H]1C [Example I-557] | 50 to 500 | 100 to 500 | 100 to 1000 | –
5 | CC(=O)N1c2ccc(-c3cnn(C4CCOCC4)c3)cc2N(C(=O)OC(C)C)C[C@@H]1C [Example I-307] | 50 to 500 | 100 to 500 | 100 to 1000 | –
6 | C[C@H]1CN(C(=O)C2CC2)c2cc(-c3ccc(N4CCS(=O)(=O)CC4)cc3)ccc2N1C(=O)C1CC1 [Example I-436] | 50 to 500 | 100 to 500 | 100 to 1000 | –
7 | CC(=O)N1c2ccc(-c3ccc(S(=O)(=O)CCN)cc3)cc2N(C(=O)c2ccco2)C[C@@H]1C [Example I-425] | < 50 | 100 to 500 | 100 to 1000 | –
8 | CC(=O)N1c2ccc(-c3ccc(S(C)(=O)=O)cc3)cc2N(C(=O)c2cc3cccnc3[nH]2)CC1C (stereo not drawn) [Example I-789] | < 50 | 100 to 500 | 100 to 1000 | –
9 | CC(=O)N1c2ccc(-c3cnn(CC(F)(F)F)c3)cc2N(C(=O)OC(C)C)C[C@@H]1C [Example I-604] | 50 to 500 | 100 to 500 | < 100 | –
10 | CC(=O)N1c2ccc(-c3cnn(C(C)C)c3)cc2N(C(=O)OC(C)C)C[C@@H]1C [Example I-653] | 50 to 500 | 100 to 500 | 100 to 1000 | –
11 | CC(=O)N1c2ccc(-c3cnn(C4CC4)c3)cc2N(c2nn(C)c3ccncc23)C[C@@H]1C [Example I-186, 1-[(2S)-6-(1-cyclopropyl-1H-pyrazol-4-yl)-2-methyl-4-{1-methyl-1H-pyrazolo[4,3-c]pyridin-3-yl}-1,2,3,4-tetrahydroquinoxalin-1-yl]ethan-1-one] | 50 to 500 | 100 to 500 | 100 to 1000 | –
12 | CC(=O)N1c2ccc(-c3cnn(C4CCNCC4)c3)cc2N(c2nn(C)c3cnccc23)C[C@@H]1C [Example I-182, (S)-1-(2-methyl-4-(1-methyl-1H-pyrazolo[3,4-c]pyridin-3-yl)-6-(1-(piperidin-4-yl)-1H-pyrazol-4-yl)-3,4-dihydroquinoxalin-1(2H)-yl)ethanone] | < 50 | 100 to 500 | 100 to 1000 | –
13 | CC(=O)N1c2ccc(-c3ccc(S(=O)(=O)N(C)C)cc3)cc2N(C(=O)c2ccco2)C[C@@H]1C [Example I-277] | < 50 | 100 to 500 | 1000 to 10000 | –
14 | CC(=O)N1c2ccc(-c3cccc(S(C)(=O)=O)c3)cc2N(C(=O)OC(C)C)C[C@@H]1C [Example I-1053] | 50 to 500 | 100 to 500 | 1000 to 10000 | –
15 | CC(=O)N1c2ccc(-c3ccc(NS(=O)(=O)c4ccc(C)cc4)cc3)cc2N(C(=O)c2ccco2)C[C@@H]1C [Example I-860] | < 50 | < 100 | 100 to 1000 | –
16 | CC(=O)N1c2ccc(-c3cnn(C4CS(=O)(=O)C4)c3)cc2N(C(=O)OC(C)C)C[C@@H]1C [Example I-1306] | 50 to 500 | > 500 | 100 to 1000 | –
17 | CC(=O)N1c2cc(Br)c(-c3cnn(C4CC4)c3)cc2N(C(=O)OC(C)C)C[C@@H]1C [Example I-209, Isopropyl (S)-4-acetyl-6-bromo-7-(1-cyclopropyl-1H-pyrazol-4-yl)-3-methyl-3,4-dihydroquinoxaline-1(2H)-carboxylate] | > 500 | > 500 | 1000 to 10000 | –

Row | SMILES | IC50 (BRD4 BD2) [nM] | IC50 (MV4-11 cells; MV4-11, 72 h) [nM] | IC50 (BRD4 BD1) [nM] | IC50 (MV4-11 cells) [nM]
18 | CC(=O)N1c2ccc(-c3ccc(C(=O)N4CC(O)C4)cc3)cc2N(C(=O)OC(C)C)C[C@@H]1C [Example I-582] | 50 to 500 | 100 to 500 | 100 to 1000 | –
19 | COC(=O)N1c2ccc(-c3cnn(C4CCNCC4)c3)cc2N(C(=O)OC(C)C)C[C@@H]1C [Example I-355] | 50 to 500 | 100 to 500 | 100 to 1000 | –
20 | CC(=O)N1c2ccc(-c3cnn(C4CC4)c3)cc2N(c2noc3ccccc23)C[C@@H]1C [Example I-95, (S)-1-(4-(benzo[d]isoxazol-3-yl)-6-(1-cyclopropyl-1H-pyrazol-4-yl)-2-methyl-3,4-dihydroquinoxalin-1(2H)-yl)ethanone] | < 50 | – | < 100 | 100 to 500
21 | CC(=O)N1c2ccc(-c3ccc(NS(C)(=O)=O)cc3)cc2N(C(=O)OC2CCC(F)(F)CC2)C[C@@H]1C [Example I-31, (S)-4,4-difluorocyclohexyl 4-acetyl-3-methyl-7-(4-(methylsulfonamido)phenyl)-3,4-dihydroquinoxaline-1(2H)-carboxylate] | 50 to 500 | 100 to 500 | 100 to 1000 | –
22 | COc1ncccc1OC(=O)N1C[C@H](C)N(C(C)=O)c2ccc(-c3cnn(C4CC4)c3)cc21 [Example I-521] | < 50 | < 100 | < 100 | –
23 | CC(=O)N1c2ccc(-c3ccc(OCCS(C)(=O)=O)cc3)cc2N(C(=O)OC2CCCCC2)C[C@@H]1C [Example I-1251] | 50 to 500 | 100 to 500 | 100 to 1000 | –
24 | CC(=O)N1c2ccc(-c3cccc(N4CCCS4(=O)=O)c3)cc2N(C(=O)C2CC2)C[C@@H]1C [Example I-1152] | 50 to 500 | 100 to 500 | 1000 to 10000 | –
25 | CC(=O)N1c2ccc(-c3cnn(C4CC4)c3)cc2N(c2nn(C)c3cccnc23)C[C@@H]1C [Example I-187, 1-[(2S)-6-(1-cyclopropyl-1H-pyrazol-4-yl)-2-methyl-4-{1-methyl-1H-pyrazolo[4,3-b]pyridin-3-yl}-1,2,3,4-tetrahydroquinoxalin-1-yl]ethan-1-one] | 50 to 500 | > 500 | 1000 to 10000 | –
26 | COC(=O)N1c2ccc(-c3ccc(C(=O)N4CC[C@@H](NC(C)=O)C4)cc3)cc2N(C(=O)OC(C)C)C[C@@H]1C [Example I-569] | 50 to 500 | 100 to 500 | 100 to 1000 | –
27 | CC(=O)N1c2ccc(-c3ccc(N4CCOCC4)cc3)cc2N(C(=O)C2CC2)C[C@@H]1C [Example I-1058] | 50 to 500 | 100 to 500 | 1000 to 10000 | –
28 | CCOC(=O)N1C[C@H](C)N(C(C)=O)c2ccc(-c3cccc(NS(=O)(=O)CC)c3)cc21 [Example I-1056] | 50 to 500 | > 500 | 1000 to 10000 | –
29 | CC(=O)N1c2ccc(-c3ccc4c(c3)CCCN4S(C)(=O)=O)cc2N(C(=O)OC(C)C)C[C@@H]1C [Example I-1160] | 50 to 500 | 100 to 500 | 100 to 1000 | –
30 | CC(C)OC(=O)N1C[C@H](C)N(C(=O)C2CC2)c2ccc(-c3cnn(CC(F)(F)F)c3)cc21 [Example I-619] | 50 to 500 | 100 to 500 | 100 to 1000 | –
31 | CC(=O)N1c2ccc(-c3cnn(CCN4CCOCC4)c3)cc2N(C(=O)OC(C)C)C[C@@H]1C [Example I-306] | 50 to 500 | 100 to 500 | 100 to 1000 | –
32 | COc1cc2c(cc1-c1cnn(C3CC3)c1)N(C(=O)OC(C)C)C[C@H](C)N2C(C)=O [Example I-210, Isopropyl (S)-4-acetyl-7-(1-cyclopropyl-1H-pyrazol-4-yl)-6-methoxy-3-methyl-3,4-dihydroquinoxaline-1(2H)-carboxylate] | > 500 | > 500 | 1000 to 10000 | –
33 | CC(=O)N1c2ccc(-c3cnn(Cc4ccccn4)c3)cc2N(C(=O)C2CC2)C[C@@H]1C [Example I-121, (S)-1-(4-(cyclopropanecarbonyl)-2-methyl-6-(1-(pyridin-2-ylmethyl)-1H-pyrazol-4-yl)-3,4-dihydroquinoxalin-1(2H)-yl)ethanone] | < 50 | 100 to 500 | 100 to 1000 | –
